Test results taken from patent US11541132B2, “Radiolabeled compounds” (Hoffmann-La Roche Inc., priority 2017, dated 2023).
Where two headings read alike, the source gives them in different places.

Assays:
[1] = target: T1, native Aβ aggregates in human AD brain tissue sections (Homo sapiens, UniProt P05067); assay: Aβ in vitro displacement assay (selectivity counterscreen, [3H]Example 3 autoradiography); format: binding; settings: for inhibition at 3 µM: 3 μM compound, read-out: sel. counterscreen PCT_INHIB AD @ 3 μM; for inhibition at 1 µM: read-out: sel. counterscreen PCT_INHIB AD @ 1 μM (% displacement of [3H]Example 3)
T1 construct: native Aβ aggregates in human AD brain tissue samples; from tissue; host or cells: human AD brain tissue sections
T1 sequence (P05067 672-713 limits assumed): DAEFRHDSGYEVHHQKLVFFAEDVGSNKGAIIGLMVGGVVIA

[2] = target: T2, native aSyn aggregates in A30P transgenic mouse brain sections (Homo sapiens, UniProt P37840, A30P); assay: aSyn in vitro displacement assay ([3H]Example-3 autoradiography); format: binding, mutant human aSyn gene); settings: for inhibition at 3 µM: 3 μM compound, read-out: PCT_INHIB A30P @ 3 μM; for inhibition at 1 µM: read-out: PCT_INHIB A30P @ 1 μM (% displacement of [3H]Example-3)
T2 construct: from tissue; host or cells: brain sections (midbrain and pons as ROI) of A30P transgenic mice, line B6.D2-Tg(Thy1-SNCA*30P)31Pjk

[3] = 3 nM [3H]Example 3, human AD brain sections
[4] = 3 nM [3H]Example-3, A30P transgenic mouse brain sections
[5] = 1 μM compound, 3 nM [3H]Example 3, human AD brain sections
[6] = 1 μM compound, 3 nM [3H]Example-3, A30P transgenic mouse brain sections

Structure (SMILES)	inhibition at 1 µM [1, 5] [%]	inhibition at 1 µM [2, 6] [%]	also measured
C#CCOc1ccc(C(=O)Nc2ccc(N3CCN(c4ccc(C#N)cn4)CC3)cc2)cc1 [Example 174, N-[4-[4-(5-Cyano-2-pyridyl)piperazin-1-yl]phenyl]-4-prop-2-ynoxy-benzamide]	–	–	inhibition at 3 µM [1, 3]: 100%; inhibition at 3 µM [2, 4]: 87%
O=C(Nc1ccc(N2CCN(c3ccccn3)CC2)nn1)c1ccc(N2CCOCC2)cc1 [Example 48, 4-Morpholino-N-[6-[4-(2-pyridyl)piperazin-1-yl]pyridazin-3-yl]benzamide]	93	97	–
O=C(Nc1cnc(N2CCN(c3ccccn3)CC2)cn1)c1ccc(N2CCOCC2)cc1 [Example 88, 4-Morpholino-N-(5-(4-(pyridin-2-yl)piperazin-1-yl)pyrazin-2-yl)benzamide]	71	87	–
Cc1ccc(C(=O)Nc2ccc(N3CCN(c4ccccn4)CC3)cn2)nc1 [Example 53, 5-Methyl-N-(5-(4-(pyridin-2-yl)piperazin-1-yl)pyridin-2-yl)picolinamide]	86	82	–
COc1ccc(C(=O)Nc2cnc(N3CCN(c4ccccn4)CC3)nc2)c(C)c1 [Example 72, 4-Methoxy-2-methyl-N-(2-(4-(pyridin-2-yl)piperazin-1-yl)pyrimidin-5-yl)benzamide]	86	80	–
COc1ccc(C(=O)Nc2ccc(N3CCN(c4ccc(C#N)c(C)c4)CC3)cc2)cc1 [Example 153, N-(4-(4-(4-Cyano-3-methylphenyl)piperazin-1-yl)phenyl)-4-methoxybenzamide]	87	92	–
N#Cc1ccc(N2CCN(c3ccc(NC(=O)c4ccc(OCF)cc4)cc3)CC2)nc1 [Example 136, N-(4-(4-(5-cyanopyridin-2-yl)piperazin-1-yl)phenyl)-4-(fluoromethoxy) benzamide]	92	91	–
COc1ccc(C(=O)Nc2ccc(N3CCN(c4cc(C)c(C#N)cn4)CC3)cc2)cc1 [Example 151, N-(4-(4-(5-Cyano-4-methylpyridin-2-yl)piperazin-1-yl)phenyl)-4-methoxybenzamide]	91	93	–
COc1ccc(C(=O)Nc2ccc(N3CCN(c4nccs4)CC3)cc2)c(F)c1 [Example 18, 2-Fluoro-4-methoxy-N-[4-[4-(1,3-thiazol-2-yl)piperazin-1-yl]phenyl]benzamide]	99	95	–
COc1ccc(C(=O)Nc2ccc(N3CCN(c4cccs4)CC3)cc2)cc1 [Example 66, 4-Methoxy-N-{4-[4-(thiophen-2-yl)piperazin-1-yl]phenyl}benzamide]	103	104	–
C#CCOc1ccc(C(=O)Nc2ccc(N3CCN(c4ccccn4)CC3)cc2)cc1 [Example 177, 4-Prop-2-ynoxy-N-[4-[4-(2-pyridyl)piperazin-1-yl]phenyl]benzamide]	–	–	inhibition at 3 µM [1, 3]: 97%; inhibition at 3 µM [2, 4]: 96%
COc1ccc(C(=O)Nc2ccc(N3CCN(c4ccccn4)CC3)cn2)c(C)c1 [Example 80, 4-Methoxy-2-methyl-N-[5-(4-pyridin-2-ylpiperazin-1-yl)pyridin-2-yl]benzamide]	94	90	–
CN1CCN(c2ccc(C(=O)Nc3ccc(N4CCN(c5ccccn5)CC4)cn3)cc2)CC1 [Example 81, 4-(4-Methylpiperazin-1-yl)-N-[5-(4-pyridin-2-ylpiperazin-1-yl)pyridin-2-yl]benzamide]	92	90	–
COc1cccc(C(=O)Nc2ccc(N3CCN(c4ccc(C#N)cc4)CC3)cc2)n1 [Example 93, N-(4-(4-(4-Cyanophenyl)piperazin-1-yl)phenyl)-6-methoxypicolinamide]	89	99	–
COc1ccc(C(=O)Nc2ccc(N3CCN(c4cccc(F)n4)CC3)cc2)cc1 [Example 146, N-(4-(4-(6-Fluoropyridin-2-yl)piperazin-1-yl)phenyl)-4-methoxybenzamide]	91	95	–
CN(C)c1ccc(C(=O)Nc2cnc(N3CCN(c4ccccn4)CC3)nc2)cc1 [Example 62, 4-(Dimethylamino)-N-(2-(4-(pyridin-2-yl)piperazin-1-yl)pyrimidin-5-yl)benzamide]	97	89	–
N#Cc1ccc(N2CCN(c3ccc(NC(=O)c4ccc(N5CCOCC5)cc4)cc3)CC2)cc1 [Example 92, N-(4-(4-(4-Cyanophenyl)piperazin-1-yl)phenyl)-4-morpholinobenzamide]	86	96	–

Structure (SMILES)	inhibition at 1 µM [1, 5] [%]	inhibition at 1 µM [2, 6] [%]	also measured
COc1ccc(C(=O)Nc2ccc(N3CCN(c4ccc(C)nc4)CC3)cc2)cc1 [Example 156, 4-Methoxy-N-(4-(4-(6-methylpyridin-3-yl)piperazin-1-yl)phenyl)benzamide]	76	81	–
CN1CCN(c2ccc(C(=O)Nc3cnc(N4CCN(c5ccccn5)CC4)nc3)cc2)CC1 [Example 73, 4-(4-Methylpiperazin-1-yl)-N-(2-(4-(pyridin-2-yl)piperazin-1-yl)pyrimidin-5-yl)benzamide]	91	88	–
COC(=O)c1ccc(N2CCN(c3ccc(NC(=O)c4ccc(OC)cc4)cc3)CC2)nc1 [Example 172, Methyl 6-(4-(4-(4-methoxybenzamido)phenyl)piperazin-1-yl)nicotinate]	84	93	–
Cc1cccc(C(=O)Nc2cnc(N3CCN(c4ccccn4)CC3)nc2)c1 [Example 64, 3-Methyl-N-(2-(4-(pyridin-2-yl)piperazin-1-yl)pyrimidin-5-yl)benzamide]	92	88	–
COc1ccc(C(=O)Nc2ccc(N3CCN(c4ccc(C#N)cc4)CC3)cc2)cc1F [Example 163, N-(4-(4-(4-Cyanophenyl)piperazin-1-yl)phenyl)-3-fluoro-4-methoxybenzamide]	92	94	–
O=C(Nc1ccc(N2CCN(c3ccccn3)CC2)cc1)c1ccn2ccnc2c1 [Example 16, N-(4-(4-(Pyridin-2-yl)piperazin-1-yl)phenyl)imidazo[1,2-a]pyridine-7-carboxamide]	97	87	–
O=C(Nc1ccc(N2CCN(c3nccs3)CC2)cc1)c1ccc(OCCF)cc1 [Example 119, 4-(2-Fluoroethoxy)-N-[4-(4-thiazol-2-ylpiperazin-1-yl)phenyl]benzamide]	89	83	–
COc1ccc(C(=O)Nc2ccc(N3CCN(c4ccccn4)CC3)cc2)c(C)c1 [Example 11, 4-Methoxy-2-methyl-N-(4-(4-(pyridin-2-yl)piperazin-1-yl)phenyl)benzamide]	86	87	–
CC(C)(C)[Si](C)(C)OC(CF)COc1ccc(C(=O)Nc2ccc(N3CCN(c4nccs4)CC3)cc2)cc1 (racemic) [Example 126, rac-4-(2-((tert-Butyldimethylsilyl)oxy)-3-fluoropropoxy)-N-(4-(4-(thiazol-2-yl)piperazin-1-yl)phenyl)benzamide]	–	–	inhibition at 1 µM [1]: 89%; inhibition at 1 µM [2]: 82%
COc1ccc(C(=O)Nc2ccc(N3CCN(c4ccc(C#N)cc4)CC3)cc2)cc1C [Example 167, N-(4-(4-(4-Cyanophenyl)piperazin-1-yl)phenyl)-4-methoxy-3-methylbenzamide]	88	91	–
O=C(Nc1ccc(N2CCN(c3ccccn3)CC2)cn1)c1ccc(N2CCOCC2)cc1 [Example 51, 4-Morpholino-N-(5-(4-(pyridin-2-yl)piperazin-1-yl)pyridin-2-yl)benzamide]	94	94	–
COc1ccc(C(=O)Nc2ccc(N3CCN(c4cccnc4OC)CC3)cc2)cc1 [Example 67, 4-Methoxy-N-{4-[4-(2-methoxypyridin-3-yl)piperazin-1-yl]phenyl}benzamide]	88	94	–
COc1ccc(C(=O)Nc2ccc(N3CCN(c4cnc(C#N)cn4)CC3)cc2)cc1 [Example 147, N-(4-(4-(5-Cyanopyrazin-2-yl)piperazin-1-yl)phenyl)-4-methoxybenzamide]	91	88	–
COc1ccc(C(=O)Nc2ccc(N3C[C@@H]4CN(c5ccccn5)C[C@H]4C3)cc2)cc1 [Example 133, 4-Methoxy-N-(4-((3aR,6aR)-5-(pyridin-2-yl)hexahydropyrrolo[3,4-c]pyrrol-2(1H)-yl)phenyl)benzamide]	84	85	–
CN(C)c1ccc(C(=O)Nc2cnc(N3CCN(c4ccccn4)CC3)cn2)cc1 [Example 86, 4-(Dimethylamino)-N-(5-(4-(pyridin-2-yl)piperazin-1-yl)pyrazin-2-yl)benzamide]	100	95	–
Cc1cccc(N2CCN(c3ccc(NC(=O)c4ccc(N(C)C)cc4)cc3)CC2)n1 [Example 30, 4-(Dimethylamino)-N-(4-(4-(6-methylpyridin-2-yl)piperazin-1-yl)phenyl)benzamide]	96	91	–
COc1ccc(C(=O)Nc2ccc(N3CCN(c4ccc(C#N)cc4)CC3)cc2)cc1OC [Example 169, N-(4-(4-(4-Cyanophenyl)piperazin-1-yl)phenyl)-3,4-dimethoxybenzamide]	82	83	–
